ChEMBL document CHEMBL5465560, “Selectivity Literature for EUbOPEN Chemogenomic Library” (2024)

Legend:
[1] = target: Tyrosine-protein kinase Yes (Homo sapiens) (UniProt P07947); test: Selectivity interaction (KinomeScan (DiscoverX)) EUB0000655a YES1; details: at 10 µM
[2] = target: Serine/threonine-protein kinase Nek6 (Homo sapiens) (UniProt Q9HC98); test: Selectivity interaction (KinomeScan (DiscoverX)) EUB0000666a NEK6; details: at 10 µM
[3] = target: T1, Tyrosine-protein kinase TXK (Homo sapiens) (UniProt P42681); details: at 10 µM
T1 sequence (whole entry): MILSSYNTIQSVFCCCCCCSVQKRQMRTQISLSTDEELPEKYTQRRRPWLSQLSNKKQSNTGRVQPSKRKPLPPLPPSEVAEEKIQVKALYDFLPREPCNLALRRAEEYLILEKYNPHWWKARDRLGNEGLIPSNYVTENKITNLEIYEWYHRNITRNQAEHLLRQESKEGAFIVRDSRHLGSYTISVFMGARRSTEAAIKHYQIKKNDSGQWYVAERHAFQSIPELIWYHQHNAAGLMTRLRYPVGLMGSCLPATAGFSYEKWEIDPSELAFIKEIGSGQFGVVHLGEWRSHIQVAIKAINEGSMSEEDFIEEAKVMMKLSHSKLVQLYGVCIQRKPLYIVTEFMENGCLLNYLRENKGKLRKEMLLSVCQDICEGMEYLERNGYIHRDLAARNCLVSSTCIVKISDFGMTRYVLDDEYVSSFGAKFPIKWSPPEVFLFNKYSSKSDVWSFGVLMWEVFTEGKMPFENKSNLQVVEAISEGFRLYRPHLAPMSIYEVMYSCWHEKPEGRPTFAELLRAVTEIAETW

[4] = target: Macrophage colony-stimulating factor 1 receptor (Homo sapiens) (UniProt P07333); test: Selectivity interaction (Kinase panel (Z-LYTE Assay)) EUB0001632a CSF1R; details: at 10 µM
[5] = target: Amine oxidase [flavin-containing] A (Homo sapiens, UniProt P21397); test: Selectivity interaction (Panel of non-epigenetic targets (kinases, GPCRs, ion channels, and transporters, Eurofins) ) EUB0000271b MAOA; details: at 1 µM
[6] = target: T2, Receptor-interacting serine/threonine-protein kinase 4 (Homo sapiens) (UniProt P57078); test: Selectivity interaction (KinomeScan (DiscoverX)) EUB0000045b RIPK4
T2 sequence (whole entry): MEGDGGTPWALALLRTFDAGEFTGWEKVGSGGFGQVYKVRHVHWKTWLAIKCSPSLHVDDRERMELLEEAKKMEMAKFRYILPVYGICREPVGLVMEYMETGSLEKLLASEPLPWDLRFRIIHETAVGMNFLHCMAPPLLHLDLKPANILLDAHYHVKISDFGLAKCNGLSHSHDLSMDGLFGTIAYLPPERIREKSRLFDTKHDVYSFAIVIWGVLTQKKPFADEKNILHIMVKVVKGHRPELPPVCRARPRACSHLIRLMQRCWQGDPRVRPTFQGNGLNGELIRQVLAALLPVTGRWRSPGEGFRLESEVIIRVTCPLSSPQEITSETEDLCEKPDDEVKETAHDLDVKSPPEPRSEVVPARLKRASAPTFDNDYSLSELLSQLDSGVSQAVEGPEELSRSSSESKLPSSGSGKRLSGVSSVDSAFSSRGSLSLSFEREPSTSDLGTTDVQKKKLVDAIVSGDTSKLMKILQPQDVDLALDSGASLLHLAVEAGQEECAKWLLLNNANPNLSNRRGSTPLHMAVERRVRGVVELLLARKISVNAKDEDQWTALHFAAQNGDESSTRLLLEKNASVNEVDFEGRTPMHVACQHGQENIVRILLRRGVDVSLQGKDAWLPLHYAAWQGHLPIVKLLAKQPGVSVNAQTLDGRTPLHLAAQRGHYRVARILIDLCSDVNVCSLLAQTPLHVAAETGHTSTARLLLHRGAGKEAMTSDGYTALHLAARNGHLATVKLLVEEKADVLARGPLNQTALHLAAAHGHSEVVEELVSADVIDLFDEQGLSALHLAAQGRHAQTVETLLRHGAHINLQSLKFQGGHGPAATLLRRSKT

[7] = target: RAF proto-oncogene serine/threonine-protein kinase (Homo sapiens) (UniProt P04049); test: Selectivity interaction (KinomeScan (DiscoverX)) EUB0000618a RAF1; details: at 10 µM
RAF proto-oncogene serine/threonine-protein kinase (Homo sapiens), sequence (P04049 whole entry): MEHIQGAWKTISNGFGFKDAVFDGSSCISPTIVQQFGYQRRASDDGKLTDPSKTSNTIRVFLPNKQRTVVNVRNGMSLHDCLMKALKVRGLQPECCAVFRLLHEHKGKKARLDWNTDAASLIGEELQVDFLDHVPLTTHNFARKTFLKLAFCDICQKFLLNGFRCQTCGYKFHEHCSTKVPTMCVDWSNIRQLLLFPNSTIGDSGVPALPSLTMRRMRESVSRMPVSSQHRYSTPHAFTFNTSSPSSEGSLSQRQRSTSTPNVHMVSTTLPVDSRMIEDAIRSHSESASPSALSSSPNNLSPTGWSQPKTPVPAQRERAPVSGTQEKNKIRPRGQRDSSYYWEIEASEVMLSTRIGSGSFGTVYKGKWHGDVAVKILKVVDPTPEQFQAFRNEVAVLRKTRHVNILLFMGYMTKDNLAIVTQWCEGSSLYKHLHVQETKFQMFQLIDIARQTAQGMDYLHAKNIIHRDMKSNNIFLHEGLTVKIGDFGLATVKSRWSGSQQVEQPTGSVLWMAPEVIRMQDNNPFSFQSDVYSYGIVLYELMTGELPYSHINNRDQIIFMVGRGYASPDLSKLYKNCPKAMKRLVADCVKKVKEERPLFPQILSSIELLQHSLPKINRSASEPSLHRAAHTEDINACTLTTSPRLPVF

Tyrosine-protein kinase Yes (Homo sapiens), sequence (P07947 2-543 limits assumed): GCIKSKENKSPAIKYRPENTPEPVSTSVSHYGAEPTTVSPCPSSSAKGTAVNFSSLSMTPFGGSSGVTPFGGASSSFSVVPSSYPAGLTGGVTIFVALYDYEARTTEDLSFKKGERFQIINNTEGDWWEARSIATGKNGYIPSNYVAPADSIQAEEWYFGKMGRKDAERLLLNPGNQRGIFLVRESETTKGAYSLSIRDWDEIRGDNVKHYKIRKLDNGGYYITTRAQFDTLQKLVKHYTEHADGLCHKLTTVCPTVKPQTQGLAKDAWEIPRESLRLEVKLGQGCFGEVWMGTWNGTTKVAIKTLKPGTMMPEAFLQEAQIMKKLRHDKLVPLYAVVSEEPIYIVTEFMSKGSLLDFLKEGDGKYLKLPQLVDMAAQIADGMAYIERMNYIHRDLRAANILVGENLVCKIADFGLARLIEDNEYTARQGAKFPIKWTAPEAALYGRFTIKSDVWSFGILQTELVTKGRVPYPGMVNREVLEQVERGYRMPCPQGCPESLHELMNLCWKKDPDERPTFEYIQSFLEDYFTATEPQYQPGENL
Amine oxidase [flavin-containing] A, sequence (P21397 whole entry): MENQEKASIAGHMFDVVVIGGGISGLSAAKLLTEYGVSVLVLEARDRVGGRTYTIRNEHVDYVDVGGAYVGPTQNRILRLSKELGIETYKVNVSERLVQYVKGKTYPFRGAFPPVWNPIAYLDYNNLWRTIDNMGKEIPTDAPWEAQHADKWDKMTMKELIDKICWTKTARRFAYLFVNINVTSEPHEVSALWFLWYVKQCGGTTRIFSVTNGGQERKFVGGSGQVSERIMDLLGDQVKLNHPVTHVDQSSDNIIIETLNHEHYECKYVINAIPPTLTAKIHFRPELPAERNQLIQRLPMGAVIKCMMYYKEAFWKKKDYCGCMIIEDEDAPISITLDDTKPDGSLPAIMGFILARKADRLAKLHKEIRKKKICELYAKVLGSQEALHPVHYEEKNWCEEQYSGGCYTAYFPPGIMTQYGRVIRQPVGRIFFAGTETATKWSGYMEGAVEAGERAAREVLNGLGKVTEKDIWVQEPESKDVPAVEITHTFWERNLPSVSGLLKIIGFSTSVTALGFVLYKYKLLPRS
Serine/threonine-protein kinase Nek6 (Homo sapiens), sequence (Q9HC98 whole entry): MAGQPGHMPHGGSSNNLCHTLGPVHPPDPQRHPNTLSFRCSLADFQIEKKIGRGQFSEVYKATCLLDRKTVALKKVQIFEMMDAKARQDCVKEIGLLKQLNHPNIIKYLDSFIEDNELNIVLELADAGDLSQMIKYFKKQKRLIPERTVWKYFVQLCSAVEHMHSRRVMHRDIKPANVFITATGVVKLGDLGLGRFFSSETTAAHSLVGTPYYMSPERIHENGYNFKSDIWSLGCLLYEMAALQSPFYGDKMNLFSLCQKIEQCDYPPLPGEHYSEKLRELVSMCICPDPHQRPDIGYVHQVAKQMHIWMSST
Macrophage colony-stimulating factor 1 receptor (Homo sapiens), sequence (P07333 whole entry): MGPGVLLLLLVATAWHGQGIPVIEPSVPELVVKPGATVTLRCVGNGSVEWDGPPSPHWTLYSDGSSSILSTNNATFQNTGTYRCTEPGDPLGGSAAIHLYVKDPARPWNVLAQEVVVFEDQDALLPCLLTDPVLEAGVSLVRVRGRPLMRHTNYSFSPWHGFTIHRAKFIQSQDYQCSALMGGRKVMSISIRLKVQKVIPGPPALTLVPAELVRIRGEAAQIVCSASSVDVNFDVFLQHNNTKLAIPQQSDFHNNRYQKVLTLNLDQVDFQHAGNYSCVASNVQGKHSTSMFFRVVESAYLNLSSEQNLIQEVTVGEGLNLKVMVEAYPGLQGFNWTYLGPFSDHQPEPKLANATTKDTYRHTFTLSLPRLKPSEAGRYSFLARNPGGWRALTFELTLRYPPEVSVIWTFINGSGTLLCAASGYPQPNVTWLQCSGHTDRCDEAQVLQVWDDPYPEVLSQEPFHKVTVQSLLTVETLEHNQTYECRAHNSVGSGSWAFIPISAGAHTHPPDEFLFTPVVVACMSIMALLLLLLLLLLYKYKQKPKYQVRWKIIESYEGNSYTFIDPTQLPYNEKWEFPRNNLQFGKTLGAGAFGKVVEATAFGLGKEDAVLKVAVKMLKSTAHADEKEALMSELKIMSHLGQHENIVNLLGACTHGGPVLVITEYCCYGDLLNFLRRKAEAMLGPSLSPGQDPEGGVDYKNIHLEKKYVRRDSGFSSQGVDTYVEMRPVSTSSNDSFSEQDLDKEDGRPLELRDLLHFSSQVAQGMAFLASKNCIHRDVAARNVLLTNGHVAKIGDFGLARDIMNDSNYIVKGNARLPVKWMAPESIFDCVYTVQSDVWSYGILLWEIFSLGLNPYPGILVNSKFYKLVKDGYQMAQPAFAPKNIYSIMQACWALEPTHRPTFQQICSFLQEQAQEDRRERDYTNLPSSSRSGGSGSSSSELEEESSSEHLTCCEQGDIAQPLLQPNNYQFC

CN(C)CCOc1ccc(-c2nc(-c3ccncc3)c(-c3ccc4c(c3)CC/C4=N\O)[nH]2)cc1 showed a % of control [1] of 100%.

With O=C(NOC[C@H](O)CO)c1ccc(F)c(F)c1Nc1ccc(I)cc1F the % of control [2] was 100%.

Cc1cc([C@@H](C)Nc2ccccc2C(=O)O)c2nc(N3CCOCC3)cc(=O)n2c1 [AZD-6482] gave a % of control [3] of 90%.

For Cn1cc(-n2cnc3c(NCc4nc5cc(Cl)c(Cl)cc5[nH]4)nc(N4CCOCC4)nc32)cn1, the % of control [4] was 20%.

With Cc1cc(C)cc([C@@H]2c3cc(C)ccc3NC(=O)CN2C(=O)c2ccc(Br)s2)c1 the “% of inhibition” value [5] was 12%.

With C=CC(=O)Nc1cc(-n2c(=O)ccc3cnc4ccc(-c5ccc(NS(C)(=O)=O)cc5)cc4c32)ccc1C the % of control ([6]; at 1 µM) was 100% and the % of control ([6]; at 10 µM) was 100%.

For O[C@H]1CC[C@H](Nc2ncc3nc(Nc4c(F)cc(F)cc4F)n([C@H]4CCOC4)c3n2)CC1, the % of control [7] was 100%.
